Molecular target: T1, AMPK beta 1 (Homo sapiens, UniProt Q13131+Q9Y478)
T1 construct: in-cell-ELISA for phospho-ACC (Acetyl-CoA carboxylase 1) in HepG2 cells (liver); endogenous in cells; host or cells: HepG2 (assignment to the beta 1 column inferred)
Assay: in-cell-ELISA for phospho-ACC: activation of AMPK, beta 1 (HepG2 cells / C2C12 myotubes)
Type: cell-based
Details: 2 h, percentage activation over vehicle control; for activation at 10 µM / activation at 3 µM: read-out: Percentage activation of beta 1 at given concentration
Method: Activation of AMPK by various compounds were measured using in-cell-ELISA for phospho-ACC (Acetyl-CoA carboxylase 1) in HepG2 cells (liver) and fully differentiated myotubes (C2C12 cells) grown in 96 well plate. Cells were treated with 1 μM, 3 μM or 10 μM of the molecule (Example) for 2 h in serum free DMEM media. After methanol fixation, cells were blocked with BSA followed by addition of anti-phospho ACC antibody (Cell Signaling) and HRP conjugated secondary antibody. Absorbance values taken at 450 nm were normalized with total DNA (Hoechest stain). Results were expressed as percentage activation over vehicle control.
Percentage activation at compound (Example) concentration of 1, 3 or 10 μM for compounds according to the invention are shown in the following table. The number of the compound corresponds to the number of the Example (Ex) in the experimental section.

T1 sequence (Q9Y478 2-270 limits assumed): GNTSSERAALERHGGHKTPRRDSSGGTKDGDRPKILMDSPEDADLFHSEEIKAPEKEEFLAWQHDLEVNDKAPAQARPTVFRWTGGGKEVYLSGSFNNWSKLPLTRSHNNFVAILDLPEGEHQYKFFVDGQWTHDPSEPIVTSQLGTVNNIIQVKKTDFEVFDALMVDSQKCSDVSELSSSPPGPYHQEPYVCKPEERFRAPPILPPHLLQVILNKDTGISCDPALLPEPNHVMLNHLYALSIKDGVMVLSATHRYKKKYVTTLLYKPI
T1 sequence (Q13131 whole entry): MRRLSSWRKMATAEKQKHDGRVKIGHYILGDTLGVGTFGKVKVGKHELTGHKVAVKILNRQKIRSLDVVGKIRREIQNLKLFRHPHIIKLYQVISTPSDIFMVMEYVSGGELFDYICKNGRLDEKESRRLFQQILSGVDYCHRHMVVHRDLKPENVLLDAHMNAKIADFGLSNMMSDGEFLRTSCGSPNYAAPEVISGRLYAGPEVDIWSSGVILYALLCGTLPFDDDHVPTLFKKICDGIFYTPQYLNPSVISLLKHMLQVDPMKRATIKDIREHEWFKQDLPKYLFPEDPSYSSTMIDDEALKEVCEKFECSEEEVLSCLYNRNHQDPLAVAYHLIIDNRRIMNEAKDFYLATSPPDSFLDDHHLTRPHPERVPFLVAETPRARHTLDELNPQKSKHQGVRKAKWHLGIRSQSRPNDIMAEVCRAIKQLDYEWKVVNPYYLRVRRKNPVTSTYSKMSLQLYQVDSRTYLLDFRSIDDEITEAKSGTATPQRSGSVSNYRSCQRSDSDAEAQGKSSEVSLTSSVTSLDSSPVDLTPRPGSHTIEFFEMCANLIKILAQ
T1 sequence (P54619 whole entry partner): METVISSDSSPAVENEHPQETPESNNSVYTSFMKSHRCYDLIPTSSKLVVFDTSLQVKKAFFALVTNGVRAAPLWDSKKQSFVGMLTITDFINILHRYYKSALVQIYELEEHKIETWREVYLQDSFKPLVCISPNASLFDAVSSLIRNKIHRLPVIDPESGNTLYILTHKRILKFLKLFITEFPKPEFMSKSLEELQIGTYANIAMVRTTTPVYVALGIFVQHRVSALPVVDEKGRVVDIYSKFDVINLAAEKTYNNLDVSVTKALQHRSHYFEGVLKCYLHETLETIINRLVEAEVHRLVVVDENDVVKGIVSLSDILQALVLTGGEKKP

SMILES	activation at 10 µM (10 μM) [%]	activation at 3 µM (3 μM) [%]	also measured
O=C(O)Cc1cccc(C2CC23C(=O)Nc2cc(Cl)c(-c4ccc(-c5ccccc5O)cn4)cc23)c1 (stereo not shown) [Example 16]			Percentage activation of beta 1 at given concentration (10 μM): 23% at 10 μM
O=C(O)Cc1cccc(C2CC23C(=O)Nc2cc(Cl)c(-c4ccc(-c5ccccc5O)cn4)cc23)c1 (stereo not shown) [Example 17]			Percentage activation of beta 1 at given concentration (10 μM): 88% at 10 μM
O=C(O)Cc1cccc(C2CC23C(=O)Nc2cc(Cl)c(-c4ccc(-c5ccccc5O)cn4)cc23)c1 (stereo not shown) [Example 18]			Percentage activation of beta 1 at given concentration (10 μM): 168% at 10 μM
Cc1ccc(C2CC23C(=O)Nc2cc(Cl)c(-c4ccc(-c5ccccc5O)cn4)cc23)cc1CC(=O)O (stereo not shown) [Example 19]		43	
CC(C)c1ccc(C2CC23C(=O)Nc2cc(Cl)c(-c4ccc(-c5ncccc5O)cc4)cc23)cc1C(=O)O (stereo not shown) [Example 23]		63	
CC(C)c1ccc(C2CC23C(=O)Nc2cc(Cl)c(-c4ccc(-c5ccccc5O)cn4)cc23)cc1C(=O)O (stereo not shown) [Example 24]	85		
Cc1ccc(C2CC23C(=O)Nc2cc(Cl)c(-c4ccc(O)cc4)cc23)cc1C(=O)O (stereo not shown) [Example 29]	40		
Cc1ccc(C2CC23C(=O)N(C)c2cc(Cl)c(-c4ccc(-c5ncccc5O)cc4)cc23)cc1C(=O)O (stereo not shown) [Example 36]	39		
CC(C)c1ccc(C2CC23C(=O)N(C)c2cc(Cl)c(-c4ccc(-c5ncccc5O)cc4)cc23)cc1C(=O)O (stereo not shown) [Example 37]	112		
Cc1ccc(C2CC23C(=O)N(C)c2cc(Cl)c(-c4ccc(-c5ccncc5O)cc4)cc23)cc1C(=O)O (stereo not shown) [Example 41]	29		
Cc1ccc(C2CC23C(=O)Nc2cc(Cl)c(-c4ccc(C5(CO)CC5)cc4)cc23)cc1C(=O)O (stereo not shown) [Example 44]			Percentage activation of beta 1 at given concentration (10 μM): 11% at 10 μM
Cc1ccc(C2CC23C(=O)Nc2cc(Cl)c(-c4ccc(C5(CO)CC5)cc4)cc23)cc1C(=O)O (stereo not shown) [Example 45]			Percentage activation of beta 1 at given concentration (10 μM): 80% at 10 μM
Cc1ccc(C2CC23C(=O)Nc2cc(Cl)c(-c4ccc5c(ccn5CCO)c4)cc23)cc1C(=O)O (stereo not shown) [Example 47]	72		
O=C(O)Cc1cccc(C2CC23C(=O)Nc2cc(Cl)c(-c4ccc(C5(CO)CC5)cc4)cc23)c1 (stereo not shown) [Example 48]	74		
Cc1ccc(C2CC23C(=O)Nc2cc(Cl)c(-c4ccc(N5CCC[C@H]5CO)cc4)cc23)cc1C(=O)O (stereo partly shown) [Example 49]		53	
CC(C)c1ccc(C2CC23C(=O)Nc2cc(Cl)c(-c4ccc(N5CCC[C@@H]5CO)cc4)cc23)cc1C(=O)O (stereo partly shown) [Example 50]		68	
CC(C)c1ccc(C2CC23C(=O)Nc2cc(Cl)c(-c4ccc(N5CCC[C@H]5CO)cc4)cc23)cc1C(=O)O (stereo partly shown) [Example 51]		34	
CC(C)c1ccc(C2CC23C(=O)Nc2cc(Cl)c(-c4ccc(OCCO)cc4)cc23)cc1C(=O)O (stereo not shown) [Example 52]	51		
Cn1ccc2cc(-c3cc4c(cc3F)NC(=O)C43CC3c3cccc(CC(=O)O)c3)ccc21 (stereo not shown) [Example 56]	79		
Cc1ccc(C2CC23C(=O)Nc2cc(F)c(-c4ccc(N5CCOCC5)cc4)cc23)cc1C(=O)O (stereo not shown) [Example 57]	89		
O=C(O)Cc1cccc(C2CC23C(=O)Nc2cc(Cl)c(-c4ccc(-c5ccncc5)cc4)cc23)c1 (stereo not shown) [Example 58]			Percentage activation of beta 1 at given concentration (3 μM): 47% at 3 μM
O=C(O)Cc1cccc(C2CC23C(=O)Nc2cc(Cl)c(-c4ccc(-c5ccncc5)cc4)cc23)c1 (stereo not shown) [Example 61]			Percentage activation of beta 1 at given concentration (3 μM): 118% at 3 μM

Continued, in another order:

activation at 10 µM (10 μM) [%]	activation at 3 µM (3 μM) [%]	SMILES	also measured
102		O=C(O)c1cccc(C2CC23C(=O)Nc2cc(F)c(-c4ccc(-c5ccccc5O)cc4)cc23)c1 (stereo not shown) [Example 1]	
	60	O=C(O)c1cccc(C2CC23C(=O)Nc2cc(F)c(-c4ccc(-c5ccccc5O)cc4)cc23)c1 (stereo not shown) [Example 2]	
166		Cc1ccc(C2CC23C(=O)Nc2cc(F)c(-c4ccc(-c5ccccc5O)cc4)cc23)cc1CC(=O)O (stereo not shown) [Example 3]	
83		Cc1ccc(C2CC23C(=O)Nc2cc(F)c(-c4ccc(-c5ccccc5O)cc4)cc23)cc1C(=O)O (stereo not shown) [Example 4]	
	66	Cc1ccc(C2CC23C(=O)Nc2cc(F)c(-c4ccc(-c5ccccc5O)cc4)cc23)cc1CC(=O)O (stereo not shown) [Example 6]	
25		Cc1ccc(C2CC23C(=O)Nc2cc(Cl)c(-c4ccc(-c5ccccc5O)cn4)cc23)cc1C(=O)O (stereo not shown) [Example 8]	
23		Cc1ccc(C2CC23C(=O)Nc2cc(F)c(-c4ccc(-c5ccccc5O)cn4)cc23)cc1C(=O)O (stereo not shown) [Example 9]	
40		COc1ccc(C2CC23C(=O)Nc2cc(F)c(-c4ccc(-c5ccccc5O)cc4)cc23)cc1C(=O)O (stereo not shown) [Example 10]	
	64	COc1ccc(C2CC23C(=O)Nc2cc(F)c(-c4ccc(-c5ccccc5O)cc4)cc23)cc1C(=O)O (stereo not shown) [Example 11]	
12		COc1ccc(C2CC23C(=O)Nc2cc(F)c(-c4ccc(-c5ccccc5O)cc4)cc23)cc1CC(=O)O (stereo not shown) [Example 12]	
11		Cn1cc(C2CC23C(=O)Nc2cc(F)c(-c4ccc(-c5ccccc5O)cc4)cc23)cc1C(=O)O (stereo not shown) [Example 13]	
	48	Cn1cc(C2CC23C(=O)Nc2cc(F)c(-c4ccc(-c5ccccc5O)cc4)cc23)cc1C(=O)O (stereo not shown) [Example 14]	
176		Cc1ccc(C2CC23C(=O)N(C)c2cc(F)c(-c4ccc(-c5ccccc5O)cc4)cc23)cc1C(=O)O (stereo not shown) [Example 15]	
	99	Cc1ccc(C2CC23C(=O)Nc2cc(Cl)c(-c4ccc(-c5ncccc5O)cc4)cc23)cc1C(=O)O (stereo not shown) [Example 20]	
	93	Cc1ccc(C2CC23C(=O)Nc2cc(Cl)c(-c4ccc(-c5ccncc5O)cc4)cc23)cc1C(=O)O (stereo not shown) [Example 21]	
271		CC(C)c1ccc(C2CC23C(=O)Nc2cc(Cl)c(-c4ccc(-c5ccncc5O)cc4)cc23)cc1C(=O)O (stereo not shown) [Example 22]	
	73	O=C(O)Cc1cccc(C2CC23C(=O)Nc2cc(Cl)c(-c4ccc(-c5ccccc5O)cc4)cc23)c1 (stereo not shown) [Example 26]	
	104	Cc1ccc(C2CC23C(=O)Nc2cc(Cl)c(-c4ccc(-c5ccccc5O)cc4)cc23)cc1C(=O)O (stereo not shown) [Example 28]	
	68	O=C(O)Cc1cccc(C2CC23C(=O)Nc2cc(F)c(-c4ccc(-c5ccccc5O)cc4)cc23)c1 (stereo not shown) [Example 31]	
	39	O=C(O)c1ccc(C2CC23C(=O)Nc2cc(Cl)c(-c4ccc(-c5ccccc5O)cc4)cc23)cc1 (stereo not shown) [Example 32]	
	47	Cc1ccc(C2CC23C(=O)Nc2cc(Cl)c(-c4ccc(Cc5ccccc5O)cc4)cc23)cc1C(=O)O (stereo not shown) [Example 34]	
28		CCn1cc(C2CC23C(=O)Nc2cc(Cl)c(-c4ccc(-c5ccccc5O)cc4)cc23)cc1C(=O)O (stereo not shown) [Example 39]	
42		Cn1c(C(=O)O)ccc1C1CC12C(=O)Nc1cc(Cl)c(-c3ccc(-c4ccccc4O)cc3)cc12 (stereo not shown) [Example 42]	
	43	Cn1cc(C2CC23C(=O)Nc2cc(Cl)c(-c4ccc(-c5ccccc5O)cc4)cc23)cc1C(=O)O (stereo not shown) [Example 43]	
	47	Cc1ccc(C2CC23C(=O)Nc2cc(Cl)c(-c4ccc(-c5ccccc5C(C)(C)O)cc4)cc23)cc1C(=O)O (stereo not shown) [Example 53]	
	42	Cc1ccc(C2CC23C(=O)Nc2cc(Cl)c(-c4ccc(-c5ccncc5)cc4)cc23)cc1C(=O)O (stereo not shown) [Example 59]	
86		Cc1ccc(C2CC23C(=O)Nc2cc(Cl)c(-c4ccc(-c5cccnc5)cc4)cc23)cc1C(=O)O (stereo not shown) [Example 62]	

From patent publication US20160130226A1, “SPIRO-SUBSTITUTED OXINDOLE DERIVATIVES HAVING AMPK ACTIVITY” (BOEHRINGER INGELHEIM INTERNATIONAL GMBH, priority 2013, published 2016)
